Results from article PMC3608355, “Amino Acid Derivatives as New Zinc Binding Groups for the Design of Selective Matrix Metalloproteinase Inhibitors” (Journal of Amino Acids, 2013).
Counter-ions that a name gives are not always drawn. Like-named read-outs stand apart in the source and are kept apart here.

Assays:
MMP-2 [1] = target: T1, MMP-2 (Homo sapiens, UniProt P08253)
T1 sequence (P08253 110-660): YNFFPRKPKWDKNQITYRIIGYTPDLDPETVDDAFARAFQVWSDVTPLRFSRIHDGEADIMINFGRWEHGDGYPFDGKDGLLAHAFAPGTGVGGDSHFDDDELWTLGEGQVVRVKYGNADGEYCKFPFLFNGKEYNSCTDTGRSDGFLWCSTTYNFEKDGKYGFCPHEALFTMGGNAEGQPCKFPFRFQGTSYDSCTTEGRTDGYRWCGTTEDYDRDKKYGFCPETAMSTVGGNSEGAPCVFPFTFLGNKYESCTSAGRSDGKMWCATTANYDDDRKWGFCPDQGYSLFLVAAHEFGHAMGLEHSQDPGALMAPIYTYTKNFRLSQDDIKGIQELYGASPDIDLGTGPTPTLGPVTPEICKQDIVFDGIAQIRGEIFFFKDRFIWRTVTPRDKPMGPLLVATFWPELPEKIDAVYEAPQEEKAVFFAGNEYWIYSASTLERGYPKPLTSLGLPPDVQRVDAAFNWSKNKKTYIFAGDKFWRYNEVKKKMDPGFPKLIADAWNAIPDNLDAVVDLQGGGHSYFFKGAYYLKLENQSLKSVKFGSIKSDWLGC

MMP-2 [2] = target: T1, MMP-2; test: biochemical
MMP-1 = target: T2, MMP-1 (Homo sapiens, UniProt P03956); test: MMP inhibition fluorometric assay, MMP-1; settings: for ΔG exp MMP-1: experimental binding energy from activity data, racemic mixture tested
T2 sequence (P03956 100-469): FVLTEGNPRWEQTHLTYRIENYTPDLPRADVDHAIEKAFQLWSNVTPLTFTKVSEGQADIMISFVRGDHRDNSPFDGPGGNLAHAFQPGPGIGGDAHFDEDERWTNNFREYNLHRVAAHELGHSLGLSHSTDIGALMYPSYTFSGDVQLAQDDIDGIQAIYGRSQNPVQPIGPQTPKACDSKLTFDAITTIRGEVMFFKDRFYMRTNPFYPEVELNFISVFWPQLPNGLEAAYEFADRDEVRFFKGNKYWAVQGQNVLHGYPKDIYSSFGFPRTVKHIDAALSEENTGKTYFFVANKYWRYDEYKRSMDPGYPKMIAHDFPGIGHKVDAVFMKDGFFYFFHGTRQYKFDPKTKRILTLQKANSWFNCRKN

MMP-9 = MMP-9 (Homo sapiens, UniProt P14780); test: MMP inhibition fluorometric assay, MMP-9; settings: for ΔG exp MMP-9: experimental binding energy from activity data, racemic mixture tested
MMP-8 = MMP-8 (Homo sapiens, UniProt P22894); test: MMP inhibition fluorometric assay, MMP-8; settings: for ΔG exp MMP-8: experimental binding energy from activity data, racemic mixture tested
[3] = experimental binding energy from activity data, chiral compounds tested as racemic mixture
[4] = ratio of IC50 values versus 25a

MMP-9, sequence (P14780 107-707 limits assumed): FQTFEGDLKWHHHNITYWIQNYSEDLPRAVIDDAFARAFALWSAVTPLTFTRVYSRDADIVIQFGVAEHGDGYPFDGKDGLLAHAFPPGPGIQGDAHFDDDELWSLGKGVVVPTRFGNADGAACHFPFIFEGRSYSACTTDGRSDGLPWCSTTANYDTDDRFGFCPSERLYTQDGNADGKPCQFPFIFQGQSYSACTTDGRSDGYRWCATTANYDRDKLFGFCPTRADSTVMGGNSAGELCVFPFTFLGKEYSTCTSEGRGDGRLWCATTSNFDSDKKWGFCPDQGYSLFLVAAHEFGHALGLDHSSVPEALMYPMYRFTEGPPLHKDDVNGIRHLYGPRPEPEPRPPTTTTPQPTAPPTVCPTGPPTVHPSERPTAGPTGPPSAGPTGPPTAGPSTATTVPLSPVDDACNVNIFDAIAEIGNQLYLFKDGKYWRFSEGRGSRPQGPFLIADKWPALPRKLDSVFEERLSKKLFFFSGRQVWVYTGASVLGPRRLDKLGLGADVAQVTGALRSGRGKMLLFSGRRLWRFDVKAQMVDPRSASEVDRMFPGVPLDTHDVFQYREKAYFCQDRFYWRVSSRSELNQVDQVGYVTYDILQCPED
MMP-8, sequence (P22894 101-467): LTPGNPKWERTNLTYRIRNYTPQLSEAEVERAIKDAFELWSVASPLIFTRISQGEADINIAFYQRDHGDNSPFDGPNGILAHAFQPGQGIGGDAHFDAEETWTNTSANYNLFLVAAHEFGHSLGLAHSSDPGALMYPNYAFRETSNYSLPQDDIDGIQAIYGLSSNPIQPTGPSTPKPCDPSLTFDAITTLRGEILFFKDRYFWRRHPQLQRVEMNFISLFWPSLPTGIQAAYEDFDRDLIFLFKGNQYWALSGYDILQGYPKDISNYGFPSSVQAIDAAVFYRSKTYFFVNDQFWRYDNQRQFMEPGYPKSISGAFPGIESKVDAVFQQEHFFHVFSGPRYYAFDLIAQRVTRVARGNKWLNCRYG

Which “ΔG exp (binding energy toward MMP-2)” value (MMP-2 [1]; [3]) does the source give for `N[C@H](CO)Cc1c[nH]cn1.O=C(O)C(F)(F)F.O=C(O)C(F)(F)F` [1e S] here?
The value was -4.565 kcal.

With `NC(CO)CO` [Compound 1a, 2-aminopropane-1,3-diol] as the compound, how does the “ΔG exp (binding energy toward MMP-2)” value (MMP-2 [1]; [3]) read?
The value was -4.837 kcal.

And the IC50 (MMP-2 [2])?
Its IC50 is 280 ± 24 µM.

Which IC50 (MMP-2 [2]) does the source give for `[N-]=[N+]=NCC(N)Cc1c[nH]cn1` (centres unmarked) [Compound 1l, 1-Azido-3-(1H-imidazol-4-yl)propan-2-amine Ditrifluoroacetate] here?
The IC50 was 480 ± 25 µM.

Which IC50 (MMP-1) does the source give for `O=S(=O)(NC(CO)CS)c1ccc(Oc2ccccc2)cc1` (centres unmarked) [Compound 25d, N-(1-Hydroxy-3-mercaptopropan-2-yl)-4-phenoxybenzenesulfonamide] here?
The IC50 was 819 ± 116 µM.

And the IC50 (MMP-2 [2])?
The IC50 was 110 ± 10 µM.

And the IC50 (MMP-9)?
Its IC50 is 12 ± 4 µM.

And the “fold more potent than 25a on MMP-9” value (MMP-9; [4])?
Its value is 13 fold.

And the IC50 (MMP-8)?
The IC50 was 9.1 ± 2.3 µM.

And the “fold more potent than 25a on MMP-8” value (MMP-8; [4])?
Its value is 10 fold.

With `CC(=O)NO` [AHA, acetohydroxamic acid, reference compound] as the compound, how does the IC50 (MMP-2 [1]; read-out: IC50 (μM ± SD), enzymatic inhibition of MMP-2, catalytic domain of MMP-2, ZBG library, value ± SD) read?
Its IC50 is 10000 ± 630 µM.

Which “ΔG exp (binding energy toward MMP-2)” value (MMP-2 [1]; [3]) does the source give for `O=C(O)C(F)(F)F.O=C(O)C(F)(F)F.[N-]=[N+]=NC[C@@H](N)Cc1c[nH]cn1` [1l S] here?
Its value is -4.524 kcal.

For `[N-]=[N+]=NCC(N)CS` (centres unmarked) [Compound 1j, 2-Amino-3-azidopropane-1-thiol Trifluoroacetate], which IC50 (MMP-2 [2]) is on record?
The IC50 was 520 ± 57 µM.

Which “ΔG exp MMP-1” value (MMP-1) does the source give for `O=S(=O)(N[C@@H](CO)CS)c1ccc(Oc2ccccc2)cc1` [25d S] here?
Its value is -4.224 kcal.

And the “ΔG exp (binding energy toward MMP-2)” value (MMP-2 [1]; [3])?
Its value is -5.396 kcal.

And the “ΔG exp MMP-9” value (MMP-9)?
Its value is -6.705 kcal.

And the “ΔG exp MMP-8” value (MMP-8)?
Its value is -6.870 kcal.

Which melting point does the source give for `NC(CS)Cc1c[nH]cn1` (centres unmarked) (as salt: TFA) [Compound 1g] here?
Its melting point is 196 to 198 °C.

Which IC50 (MMP-1) does the source give for `O=S(=O)(NC(CO)Cc1c[nH]cn1)c1ccc(Oc2ccccc2)cc1` (centres unmarked) [Compound 25e, N-(1-Hydroxy-3-(1H-imidazol-4-yl)propan-2-yl)-4-phenoxybenzenesulfonamide Hydrochloride] here?
The IC50 was 480 ± 30 µM.

What about the IC50 (MMP-2 [2]) of the same compound?
Its IC50 is 190 ± 8.7 µM.

What about the IC50 (MMP-9) of the same compound?
The IC50 was 200 ± 15 µM.

And the IC50 (MMP-8)?
Its IC50 is 330 ± 21 µM.

What does the source list for `N#CCC(N)CO.O=C(O)C(F)(F)F` (centres unmarked) [Compound 1i, 3-Amino-4-hydroxybutanenitrile Trifluoroacetate]?
IC50 (MMP-2 [2]): 807 ± 98 µM; melting point: 131 to 133 °C

Which IC50 (MMP-1) does the source give for `O=S(=O)(NC(CO)CO)c1ccc(Oc2ccccc2)cc1` [Compound 25a, N-(1,3-Dihydroxypropan-2-yl)-4-phenoxybenzenesulfonamide] here?
The IC50 was 1030 ± 160 µM.

And the “ΔG exp MMP-1” value (MMP-1)?
The value was -4.074 kcal.

And the “ΔG exp (binding energy toward MMP-2)” value (MMP-2 [1]; [3])?
Its value is -5.655 kcal.

And the IC50 (MMP-2 [2])?
Its IC50 is 71 ± 1.9 µM.

What about the IC50 (MMP-9) of the same compound?
The IC50 was 160 ± 15 µM.

What about the “ΔG exp MMP-9” value (MMP-9) of the same compound?
Its value is -5.178 kcal.

What about the IC50 (MMP-8) of the same compound?
Its IC50 is 98 ± 8 µM.

And the “ΔG exp MMP-8” value (MMP-8)?
The value was -5.460 kcal.

For `Cl.O=S(=O)(N[C@@H](CO)Cc1c[nH]cn1)c1ccc(Oc2ccccc2)cc1` (racemic) [25e R], which “ΔG exp MMP-1” value (MMP-1) is on record?
The value was -4.524 kcal.

And the “ΔG exp (binding energy toward MMP-2)” value (MMP-2 [1]; [3])?
The value was -5.069 kcal.

What about the “ΔG exp MMP-9” value (MMP-9) of the same compound?
The value was -5.042 kcal.

What about the “ΔG exp MMP-8” value (MMP-8) of the same compound?
Its value is -4.740 kcal.

With `N[C@@H](CO)Cc1c[nH]cn1.O=C(O)C(F)(F)F.O=C(O)C(F)(F)F` [1e R] as the compound, how does the “ΔG exp (binding energy toward MMP-2)” value (MMP-2 [1]; [3]) read?
The value was -4.565 kcal.

With `N#CC[C@@H](N)CO.O=C(O)C(F)(F)F` [1i R] as the compound, how does the “ΔG exp (binding energy toward MMP-2)” value (MMP-2 [1]; [3]) read?
Its value is -4.210 kcal.

Which IC50 (MMP-2 [2]) does the source give for `NC(CO)Cc1c[nH]cn1` (centres unmarked) [Compound 1e, 2-Amino-3-(1H-imidazol-4-yl)propan-1-ol Ditrifluoroacetate] here?
The IC50 was 450 ± 23 µM.

Which “ΔG exp (binding energy toward MMP-2)” value (MMP-2 [1]; [3]) does the source give for `N#CC[C@H](N)CO.O=C(O)C(F)(F)F` [1i S] here?
The value was -4.210 kcal.

For `O=S(=O)(N[C@H](CO)CS)c1ccc(Oc2ccccc2)cc1` (racemic) [25d R], which “ΔG exp MMP-1” value (MMP-1) is on record?
Its value is -4.224 kcal.

What about the “ΔG exp (binding energy toward MMP-2)” value (MMP-2 [1]; [3]) of the same compound?
The value was -5.396 kcal.

What about the “ΔG exp MMP-9” value (MMP-9) of the same compound?
Its value is -6.705 kcal.

What about the “ΔG exp MMP-8” value (MMP-8) of the same compound?
Its value is -6.870 kcal.

What does the source list for `N#CCC(N)CC#N.O=C(O)C(F)(F)F` [Compound 1b, 3-Aminopentanedinitrile Trifluoroacetate]?
ΔG exp (binding energy toward MMP-2) (MMP-2 [1]): -4.428 kcal; IC50 (MMP-2 [2]): 560 ± 52 µM

For `N[C@H](CO)CS.O=C(O)C(F)(F)F` [1d R], which “ΔG exp (binding energy toward MMP-2)” value (MMP-2 [1]; [3]) is on record?
Its value is -4.319 kcal.

With `N#CCC(N)CS` (centres unmarked) [Compound 1h, 3-Amino-4-mercaptobutanenitrile Trifluoroacetate] as the compound, how does the IC50 (MMP-2 [2]) read?
The IC50 was 500 ± 49 µM.

Which “ΔG exp (binding energy toward MMP-2)” value (MMP-2 [1]; [3]) does the source give for `N#CC[C@@H](N)CS.O=C(O)C(F)(F)F` [1h R] here?
Its value is -4.497 kcal.

For `NC(CO)CS` (centres unmarked) [Compound 1d, 2-Amino-3-mercaptopropan-1-ol Trifluoroacetate], which IC50 (MMP-2 [2]) is on record?
Its IC50 is 674 ± 88 µM.

Which “ΔG exp MMP-1” value (MMP-1) does the source give for `Cl.O=S(=O)(N[C@H](CO)Cc1c[nH]cn1)c1ccc(Oc2ccccc2)cc1` [25e S] here?
The value was -4.524 kcal.

What about the “ΔG exp (binding energy toward MMP-2)” value (MMP-2 [1]; [3]) of the same compound?
Its value is -5.069 kcal.

And the “ΔG exp MMP-9” value (MMP-9)?
The value was -5.042 kcal.

What about the “ΔG exp MMP-8” value (MMP-8) of the same compound?
The value was -4.740 kcal.

For `NC(CS)CS.O=C(O)C(F)(F)F` [Compound 1f, 2-Aminopropane-1,3-dithiol Trifluoroacetate], which “ΔG exp (binding energy toward MMP-2)” value (MMP-2 [1]) is on record?
The value was -4.333 kcal.

And the IC50 (MMP-2 [2])?
Its IC50 is 666 ± 90 µM.

For `N[C@@H](CO)CS.O=C(O)C(F)(F)F` [1d S], which “ΔG exp (binding energy toward MMP-2)” value (MMP-2 [1]; [3]) is on record?
Its value is -4.319 kcal.

Which “ΔG exp (binding energy toward MMP-2)” value (MMP-2 [1]; [3]) does the source give for `N#CC[C@H](N)CS.O=C(O)C(F)(F)F` [1h S] here?
Its value is -4.497 kcal.

For `O=C(O)C(F)(F)F.O=C(O)C(F)(F)F.[N-]=[N+]=NC[C@H](N)Cc1c[nH]cn1` [1l R], which “ΔG exp (binding energy toward MMP-2)” value (MMP-2 [1]; [3]) is on record?
Its value is -4.524 kcal.
